The results in this text go back to patent publication US20260027073A1, “USE OF SMALL-MOLECULE COMPOUND HAVING NAPHTHYLAMINE STRUCTURE” (HANGZHOU PHECDAMED CO., LTD., priority 2023, published 2026).

Molecules are shown by their SMILES.

The test system of data set [1] is middle artery occlusion model in rats. Nature of the data set: Stroke: middle cerebral artery occlusion (MCAO). To be noted: for escape latency (water maze) / number of crossing over the platform (water maze) / apoptosis rate of hippocampal neurons (flow cytometry): 30 mg/kg oral gavage; for escape latency (water maze) / number of crossing over the platform (water maze): 8 weeks; for escape latency (water maze): FIG. 82; for number of crossing over the platform (water maze): FIG. 83; for apoptosis rate of hippocampal neurons (flow cytometry): FIG. 84. The data set is classed as in vivo, SD rats. From the text:
7-8 weeks-old SD male rats were selected and adaptively fed for one week to establish a middle artery occlusion model in rats. After inducing anesthesia in rats using a small animal anesthesia machine, the anesthesia was immediately switched to maintenance, the rats were fixed in the supine position on the operating table, the neck in the middle and the right side of the operative part were shaved, and an incision was made in the middle of the neck after disinfection with alcohol and iodine vapors, and the carotid artery was separated along the tissues under the microscope, to avoid damaging blood vessels and nerves and to reduce the amount of hemorrhage; the electrocoagulation pen was used to cut off small arteries in the paracarotid branch and ligate the external carotid artery, and an another loose knot was played for backup; arterial clips were used to clip the proximal end of internal carotid artery and common carotid artery; the external carotid artery was cut with surgical scissors in the […], the filament was inserted carefully, and the marking point reached the bifurcation of internal and external carotid arteries, which meant that the head of the filament has already reached the middle cerebral artery; the skin was sutured, the symptoms were observed when the animal waked up, and the neurological function was evaluated; the suture line was cut open two hours after the surgery, the filament was drawn out, and ligature the remnant of external carotid artery was ligated tightly. The skin was re-sutured and attention was paid to the postoperative care of the rats. After modeling, drug administration was started in groups, which were divided into three groups: model group (model, treated with 0.5% CMC-Na by oral gavage, n=8) TJ01-013 treatment group (TJ01-013, 30 mg/kg TJ01-013 by oral gavage, n=8), and I-14-1 treatment group (I-14-1, 30 mg/kg I-14-1 by oral gavage, n=8). 8). Another normal control group (Control, 0.5% CMC-Na treatment by oral gavage, n=8) was set up, with performing the corresponding surgical operation, but no carotid artery was ligated and no filament insertion was performed, and the normal control group was administered for a total of 8 weeks, and at the end of the administration, the cognitive function of the rats was examined by using the water maze.
The night before the experiment begins, clean the laboratory and the water maze, the old water in the water maze is drained, the animal excreta should be cleaned up, and the laboratory is ventilated and free of special odor. The water maze was filled with fresh water, and the height of the water surface should be about 2 cm higher than the platform, and the four groups of rats underwent the water maze acclimatization training for 5 days. The above training was divided into a 4-day localization navigation experiment and a 1-day spatial exploration experiment. The water maze device was a circular pool, which was divided into quadrants I, II, III and IV with four equidistant points on the wall, and a circular hidden platform was placed in the center of the fourth quadrant. References were around the pool and kept unchanged, the pool and the platform were black, and black ink was poured into the water and mixed thoroughly so that the rats could not see the circular platform. The temperature of the water was kept at 22˜24° C. and the light in the room was stabilized. For each group of rats, a water maze test was performed at the end of drug administration to examine the cognitive status of the experimental animals. […] The four groups of rats underwent this training for 4 days, four times a day, two times in the morning and two times in the afternoon. At the end of each day, the experimenter thoroughly cleaned the water maze apparatus to prevent the odor of the rats in the water maze from affecting the results of the second day of the experiment. […]
In general terms: A flow cytometer gives signals particle by particle.

Data set [2] is described as follows: In vitro liver microsomal stability test. How it is done: Ketanserin was selected as the reference compound. The specific method was as follows:
0.1 M K3PO4 (pH 7.4) buffer and 3×NADPH stock solution (6 mM, 5 mg/mL) were configured and preheated in a 37° C. water bath; configuration of the test compounds and the control compounds (spiking solution): adding 5 μL of the compound stock solution ([…]) into 95 μL of acetonitrile; configuration of 1.5 μM spiking solution in microsomes (0.75 mg/mL): adding 1.5 μL of spiking solution and 18.75 μL of liver microsomal solution (20 mg/mL) into 479.75 μL of K3PO4 buffer; adding 30 μL of spiking solution in microsomes into the multiwell plate, and incubating at 37° C. for 5 min; adding 15 μL of NADPH storage solution into each well to start to react, and timing; adding 150 μL of acetonitrile solution containing IS at 0 min, 5 min, 15 min, 30 min, and 45 min, respectively, stopping the reaction; oscillating for 10 min, and then centrifuging at 6,000 rpm for 15 min; taking 80 μL of supernatant from each well for LC/MS detection, and calculating T1/2.
(In general: Liver microsomes are vesicles of endoplasmic reticulum, rich in cytochrome P450 enzymes.)

On to `O=C(O)C[S+]([O-])c1cc(NS(=O)(=O)c2ccc(Br)cc2)c2ccccc2c1O` (stereo not drawn) [I-1], for which, in data set [1], the “escape latency (water maze)” value is on record as “shorten the escape latency”, the “number of crossing over the platform (water maze)” value is “increased” and the “apoptosis rate of hippocampal neurons (flow cytometry)” value is recorded as “significantly reduce”. Also, in data set [1] (per readout of the block), the “therapeutic effect of TJ01-013 compared with I-14-1” value is “significantly better”. The “liver microsomal stability (elimination half-life T1/2)” value in data set [2] (microsomes) is given as “superior liver microsomal stability”.
On to `O=C(O)C[S+]([O-])c1cc(NS(=O)(=O)c2ccc(C(F)(F)F)cc2)c2ccccc2c1O` (stereo not drawn) [I-14-1], for which, in data set [1], the “escape latency (water maze)” value is “shorten the escape latency”, the “number of crossing over the platform (water maze)” value was “increased” and the “apoptosis rate of hippocampal neurons (flow cytometry)” value is recorded as “significantly reduce”.
As to `O=C(O)CSc1cc(NS(=O)(=O)c2ccc(Br)cc2)c2ccccc2c1O` [UMI-77, reference compound], the “liver microsomal stability (elimination half-life T1/2)” value in data set [2] (in vitro mouse or human liver microsomal environment, FIG. 19) is given as “unstable”.
